Target: hERG (KCNH2) potassium channel (Homo sapiens, UniProt Q12809)
Assay: For electrophysiological measurements cells were seeded onto 35 mm sterile culture dishes containing 2 ml culture medium without Hygromycin B. Cells were cultivated at a density that enabled single cells (without visible connections to neighbouring cells) to be measured. […] The cells were continuously maintained in and passaged in sterile culture flasks containing nutrient mixture F-12 (DMEM/F-12 with L-Glutamine) supplemented with 10% foetal bovine serum and 10% penicillin/streptomycin solution. […] The 35 mm culture dishes upon which cells were seeded at a density allowing single cells to be recorded were placed on the dish holder of the microscope and continuously perfused (at approximately 1 ml/min) with the bath solution (sodium chloride 150 mM, potassium chloride 4 mM, calcium chloride 1.2 mM, magnesium chloride 1 mM, HEPES 10 mM, pH (NaOH) 7.4) at near physiological temperature (36±1° C.). After formation of a Gigaohm seal between the patch electrodes and individual hERG stably transfected CHO cells (pipette resistance range: 2.0 MΩ-7.0 MΩ; seal resistance range: >1 GΩ) the cell membrane across the pipette tip was ruptured to assure electrical access to the cell interior (whole-cell patch-configuration). In case the quality of the seal was poor, the process of seal formation was repeated with a different cell and a new pipette. […] […]
Assay type: cell-based
Conditions: CHO cells stably expressing the hERG channel, pH 7.4

Chain of hERG (KCNH2) potassium channel (Q12809 whole entry, the tested form may be a part): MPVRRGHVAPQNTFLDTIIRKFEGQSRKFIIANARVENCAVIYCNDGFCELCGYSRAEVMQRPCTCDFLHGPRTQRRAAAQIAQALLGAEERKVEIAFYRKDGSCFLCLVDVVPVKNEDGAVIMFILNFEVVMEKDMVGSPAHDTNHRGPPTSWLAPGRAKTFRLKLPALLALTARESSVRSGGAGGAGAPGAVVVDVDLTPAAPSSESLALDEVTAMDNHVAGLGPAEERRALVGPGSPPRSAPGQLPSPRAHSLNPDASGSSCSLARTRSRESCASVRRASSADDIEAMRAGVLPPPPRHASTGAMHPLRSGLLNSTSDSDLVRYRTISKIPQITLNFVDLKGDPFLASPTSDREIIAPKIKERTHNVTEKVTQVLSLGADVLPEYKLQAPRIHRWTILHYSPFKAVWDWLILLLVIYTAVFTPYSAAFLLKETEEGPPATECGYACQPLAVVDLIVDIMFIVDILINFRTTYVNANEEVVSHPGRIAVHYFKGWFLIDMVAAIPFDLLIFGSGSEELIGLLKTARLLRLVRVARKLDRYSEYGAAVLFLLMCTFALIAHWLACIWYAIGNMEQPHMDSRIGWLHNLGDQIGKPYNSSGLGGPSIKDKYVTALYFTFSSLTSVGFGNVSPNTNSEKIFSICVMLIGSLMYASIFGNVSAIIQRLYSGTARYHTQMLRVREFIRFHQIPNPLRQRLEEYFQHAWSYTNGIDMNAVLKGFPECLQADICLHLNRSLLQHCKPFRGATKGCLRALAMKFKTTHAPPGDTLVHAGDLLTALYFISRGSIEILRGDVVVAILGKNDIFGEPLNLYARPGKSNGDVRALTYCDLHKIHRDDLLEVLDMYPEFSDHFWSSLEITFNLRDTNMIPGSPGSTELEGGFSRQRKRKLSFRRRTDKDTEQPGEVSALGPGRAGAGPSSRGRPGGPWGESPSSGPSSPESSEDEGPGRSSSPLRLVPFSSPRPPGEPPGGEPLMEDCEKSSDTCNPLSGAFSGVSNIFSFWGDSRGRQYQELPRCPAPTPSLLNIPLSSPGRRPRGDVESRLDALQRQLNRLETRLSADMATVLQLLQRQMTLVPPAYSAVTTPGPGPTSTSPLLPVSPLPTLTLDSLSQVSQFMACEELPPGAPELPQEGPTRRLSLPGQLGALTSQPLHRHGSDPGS

O=C(Nc1ccc([C@H]2CNCCO2)cc1)c1ccc(Cl)nc1
IC50: 14.3 µM
